# Source: patent US9125430B2, “Stable and bioavailable compositions of isomers of carotenoids for skin and hair” (Nestec S.A., priority 2006, dated 2015)
# Assay: Stability of pure lycopene isomers in n-hexane during storage at room temperature
# Format: physicochemical
# Conditions: for concentration 5-Z / concentration 9-Z / concentration 13-Z / concentration all E / concentration x-Z: n-hexane; for transformation pathway during storage: storage in n-hexane
# Experimental: Pure 5-Z, 9-Z, 13-Z and all-E lycopene were isolated from isomerised tomato oleoresin (submitted to 1 hour heating), by collecting the fractions containing the corresponding peaks after HPLC separation (see below the experimental conditions). Peaks were collected during two consecutive HPLC runs and the corresponding fractions were pooled.
# Amount of total lycopene was determined by reverse phase HPLC on a C18 precolumn (ODS Hypersil, 5 μm, 20×4 mm; Hewlett Packard, Geneva, Switzerland) and a C18 column (Nova pak, 3.9 μm i.d.×300 mm length, Millipore, Volketswil, Switzerland). […] The mobile phase flow rate was 1.5 mL/min. Lycopene isomer profiles were determined by normal phase HPLC according to the method described by Schierle et al. (1997). Food. Chem. 59: 459. Samples of isomerized oleoresins were dissolved in n-hexane containing 50 ppm BHT and spun at maximum speed in an Eppendorf Lab centrifuge. The resulting supernatants were immediately analyzed by HPLC. The HPLC system used was a 1100 series Hewlett-Packard model equipped with an ultraviolet-visible photodiode array detector. Data were simultaneously acquired at 470 nm, 464 nm, 346 nm and 294 nm. Samples (10 μl) were separated using a combination of three Nucleosil 300-5 columns (4 mm internal diameter×250 mm length, Macherey-Nagel). […] Flow rate was 0.8 mL/min. Lycopene Z-isomers were identified according to literature data.
# Amounts of lycopene isomers were calculated based on surface areas of the HPLC peaks using the same extinction coefficient as the all-E lycopene. Therefore, the lycopene concentration in products containing Z-isomers is slightly underestimated since it is recognized that the extinction coefficients of Z-isomers are lower than that of the all-E isomer. Conditions for Stability Tests
# Stability of lycopene isomers was investigated both in n-hexane and in a tomato oleoresin isomerized by 4 hour heating in ethyl acetate. For this purpose, pure lycopene isomers were stored for 33 days in n-hexane at room temperature and in the absence of light, and the isomerized tomato oleoresin was kept for 55 days at room temperature in the absence of light. Total lycopene concentration and lycopene isomer profiles were measured at various time intervals during the storage.
# [1] = room temperature, absence of light, 0 days
# [2] = room temperature, absence of light, 1 day
# [3] = room temperature, absence of light, 2 days
# [4] = room temperature, absence of light, 5 days
# [5] = room temperature, absence of light, 12 days
# [6] = room temperature, absence of light, 33 days
concentration 5-Z [1],concentration all E [1],concentration x-Z [1],concentration 5-Z [2],concentration all E [2],concentration x-Z [2],concentration 5-Z [3],concentration all E [3],concentration x-Z [3],concentration 5-Z [4],concentration all E [4],concentration x-Z [4],concentration 5-Z [5],concentration 9-Z [5],concentration 13-Z [5],concentration all E [5],concentration x-Z [5],concentration 5-Z [6],concentration 9-Z [6],concentration 13-Z [6],Compound,also measured
1.8 % of total isomers,4.4 % of total isomers,0 % of total isomers,2.1 % of total isomers,5.8 % of total isomers,2.8 % of total isomers,11.6 % of total isomers,6.0 % of total isomers,5.9 % of total isomers,1.5 % of total isomers,5.6 % of total isomers,8.6 % of total isomers,2.3 % of total isomers,66.5 % of total isomers,8.2 % of total isomers,7.0 % of total isomers,15.9 % of total isomers,4.1 % of total isomers,56.0 % of total isomers,10.5 % of total isomers,CC(C)=CCC/C(C)=C/C=C/C(C)=C\C=C\C(C)=C\C=C\C=C(C)\C=C\C=C(C)\C=C\C=C(/C)CCC=C(C)C [9-Z lycopene],concentration 9-Z [1]: 93.3 % of total isomers; concentration 13-Z [1]: 0.6 % of total isomers; concentration 9-Z [2]: 87.1 % of total isomers; concentration 13-Z [2]: 2.3 % of total isomers; concentration 9-Z [3]: 83.5 % of total isomers; concentration 13-Z [3]: 3.1 % of total isomers; concentration 9-Z [4]: 79.2 % of total isomers; concentration 13-Z [4]: 5.2 % of total isomers; concentration all E [6]: 9.8 % of total isomers; concentration x-Z [6]: 19.7 % of total isomers; transformation pathway during storage: principally transformed into other Z-isomers
95.5 % of total isomers,1.1 % of total isomers,3.4 % of total isomers,84.3 % of total isomers,2.2 % of total isomers,13.5 % of total isomers,76.9 % of total isomers,2.4 % of total isomers,20.6 % of total isomers,68.4 % of total isomers,3.9 % of total isomers,27.7 % of total isomers,65.3 % of total isomers,0.7 % of total isomers,1.7 % of total isomers,5.6 % of total isomers,26.7 % of total isomers,53.5 % of total isomers,2.3 % of total isomers,2.8 % of total isomers,CC(C)=CCC\C(C)=C/C=C/C(C)=C/C=C/C(C)=C/C=C/C=C(C)/C=C/C=C(C)/C=C/C=C(\C)CCC=C(C)C [5-Z lycopene],concentration all E [6]: 10.7 % of total isomers; concentration x-Z [6]: 30.7 % of total isomers; transformation pathway during storage: principally transformed into other Z-isomers
0.5 % of total isomers,97.6 % of total isomers,0.1 % of total isomers,1.2 % of total isomers,86.0 % of total isomers,1.5 % of total isomers,2.6 % of total isomers,78.4 % of total isomers,3.0 % of total isomers,3.8 % of total isomers,69.3 % of total isomers,5.1 % of total isomers,6.4 % of total isomers,2.0 % of total isomers,18.2 % of total isomers,67.8 % of total isomers,5.6 % of total isomers,13.4 % of total isomers,3.8 % of total isomers,15.7 % of total isomers,CC(C)=CCC/C(C)=C/C=C/C(C)=C/C=C/C(C)=C/C=C/C=C(C)/C=C/C=C(C)/C=C/C=C(\C)CCC=C(C)C [all-E lycopene],concentration 9-Z [1]: 0.5 % of total isomers; concentration 13-Z [1]: 1.4 % of total isomers; concentration 9-Z [2]: 1.2 % of total isomers; concentration 13-Z [2]: 10.1 % of total isomers; concentration 9-Z [3]: 1.1 % of total isomers; concentration 13-Z [3]: 15.0 % of total isomers; concentration 9-Z [4]: 2.2 % of total isomers; concentration 13-Z [4]: 19.6 % of total isomers; concentration all E [6]: 58.7 % of total isomers; concentration x-Z [6]: 8.4 % of total isomers
0 % of total isomers,2.4 % of total isomers,1.0 % of total isomers,0 % of total isomers,42.6 % of total isomers,0 % of total isomers,0 % of total isomers,59.8 % of total isomers,1.5 % of total isomers,1.9 % of total isomers,68.9 % of total isomers,4.3 % of total isomers,5.3 % of total isomers,2.6 % of total isomers,20.8 % of total isomers,65.5 % of total isomers,5.8 % of total isomers,11.7 % of total isomers,4.2 % of total isomers,16.9 % of total isomers,CC(C)=CCC/C(C)=C/C=C/C(C)=C/C=C/C(C)=C\C=C\C=C(C)\C=C\C=C(C)\C=C\C=C(/C)CCC=C(C)C [13-Z lycopene],"fraction of the isomer transformed / converted into other isomers (after 33 day storage in n-hexane, room temperature, absence of light): more than 80%; stability compared with the 5-Z, 9-Z and all-E isomers (both stability tests (n-hexane and tomato oleoresin)): much less stable; concentration 9-Z [1]: 0 % of total isomers; concentration 13-Z [1]: 96.6 % of total isomers; concentration 9-Z [2]: 0.4 % of total isomers; concentration 13-Z [2]: 57.0 % of total isomers; concentration 9-Z [3]: 0 % of total isomers; concentration 13-Z [3]: 38.7 % of total isomers; concentration 9-Z [4]: 1.5 % of total isomers; concentration 13-Z [4]: 23.4 % of total isomers; concentration all E [6]: 57.0 % of total isomers; concentration x-Z [6]: 10.2 % of total isomers; transformation pathway during storage: mainly converted into the all-E isomer"
